Measurements published in patent US9403808B2, “Pyrazine derivatives” (Hoffmann-La Roche Inc., priority 2011, dated 2016).

Columns and labels:
human CB1 receptors = human CB1 receptors (Homo sapiens (Human), UniProt P21554); assay: functional cAMP assay, CB1; type: cell-based; conditions: functional cAMP assay, CHO cells expressing human CB1; read-out: human CB1 EC50
Outline: (§1)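 CHO cells expressing human CB1 or CB2 were preincubated 30 min at 30 °C in Krebs Ringer bicarbonate buffer with 1 mM IBMX, then exposed to compound for 30 min at 30 °C. cAMP was measured by TR-FRET (cAMP-Nano-TRF) against a 10 μM–0.13 nM cAMP standard curve, and EC50 values were derived.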

human CB2 receptors = human CB2 receptors (Homo sapiens (Human), UniProt P34972); assay: functional cAMP assay, CB2; type: cell-based; conditions: functional cAMP assay, CHO cells expressing human CB2; read-out: human CB2 EC50
Sequence of human CB2 receptors (P34972 whole entry): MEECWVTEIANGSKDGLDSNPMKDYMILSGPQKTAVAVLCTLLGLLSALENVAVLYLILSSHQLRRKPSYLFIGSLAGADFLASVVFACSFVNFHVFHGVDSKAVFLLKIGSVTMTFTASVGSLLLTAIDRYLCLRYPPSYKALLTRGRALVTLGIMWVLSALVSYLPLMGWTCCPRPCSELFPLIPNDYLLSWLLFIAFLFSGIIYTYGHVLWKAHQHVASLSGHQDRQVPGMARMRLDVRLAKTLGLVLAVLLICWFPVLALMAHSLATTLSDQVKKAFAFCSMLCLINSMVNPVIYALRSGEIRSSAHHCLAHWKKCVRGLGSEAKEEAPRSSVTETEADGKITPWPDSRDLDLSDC
Outline: as §1

Sequence of human CB1 receptors (P21554 whole entry): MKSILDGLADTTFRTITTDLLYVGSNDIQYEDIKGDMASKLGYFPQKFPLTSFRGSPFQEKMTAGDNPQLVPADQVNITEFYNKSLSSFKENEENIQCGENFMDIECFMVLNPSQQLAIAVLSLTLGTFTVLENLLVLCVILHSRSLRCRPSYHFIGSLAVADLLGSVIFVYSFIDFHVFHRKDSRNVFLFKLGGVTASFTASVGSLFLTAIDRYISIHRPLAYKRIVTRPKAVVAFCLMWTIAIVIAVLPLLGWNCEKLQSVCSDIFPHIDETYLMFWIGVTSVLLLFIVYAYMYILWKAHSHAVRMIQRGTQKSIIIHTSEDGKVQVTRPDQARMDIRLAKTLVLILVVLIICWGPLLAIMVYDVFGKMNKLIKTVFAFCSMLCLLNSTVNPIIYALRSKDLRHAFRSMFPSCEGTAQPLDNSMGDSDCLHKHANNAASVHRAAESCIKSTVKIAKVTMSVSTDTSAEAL

Row | SMILES | EC50 (human CB1 receptors) | EC50 (human CB2 receptors)
1 | Cc1nc([C@](C)(NC(=O)c2cnc(N3CC(F)(F)C3)c(OCC3CC3)n2)C2CC2)no1 [Example 87, (−)-6-Cyclopropylmethoxy-5-(3,3-difluoro-azetidin-1-yl)-pyrazine-2-carboxylic acid [1-cyclopropyl-1-(5-methyl-[1,2,4]oxadiazol-3-yl)-ethyl]-amide] | > 10000 nM | 13.2 nM
2 | CC(C)C(NC(=O)c1cnc(N2CC(F)(F)C2)c(OCC2CC2)n1)C(N)=O (centres unmarked) [Example 88, 6-Cyclopropylmethoxy-5-(3,3-difluoro-azetidin-1-yl)-pyrazine-2-carboxylic acid (1-carbamoyl-2-methyl-propyl)-amide] | > 10000 nM | 79.1 nM
3 | NC(=O)C1(NC(=O)c2cnc(N3CC(F)(F)C3)c(OCC3CC3)n2)CCCCC1 [Example 89, 6-Cyclopropylmethoxy-5-(3,3-difluoro-azetidin-1-yl)-pyrazine-2-carboxylic acid (1-carbamoyl-cyclohexyl)-amide] | > 10000 nM | 70.6 nM
4 | CC(C)C(NC(=O)c1cnc(N2CC(F)(F)C2)c(OCC2CC2)n1)C(=O)N(C)C (centres unmarked) [Example 91, 6-Cyclopropylmethoxy-5-(3,3-difluoro-azetidin-1-yl)-pyrazine-2-carboxylic acid (1-dimethylcarbamoyl-2-methyl-propyl)-amide] | > 10000 nM | 20.5 nM
5 | CC(C)C(NC(=O)c1cnc(C2CC2)c(OCC2CC2)n1)C(=O)N(C)C (centres unmarked) [Example 92, 5-Cyclopropyl-6-cyclopropylmethoxy-pyrazine-2-carboxylic acid (1-dimethylcarbamoyl-2-methyl-propyl)-amide] | > 10000 nM | 8.6 nM
6 | O=C(Nc1ccc(Cl)s1)c1cnc(N2CC(F)(F)C2)c(OCC2CC2)n1 [Example 93, 6-Cyclopropylmethoxy-5-(3,3-difluoro-azetidin-1-yl)-pyrazine-2-carboxylic acid (5-chloro-thiophen-2-yl)-amide] | > 10000 nM | 74.1 nM
7 | O=C(NC1(CO)CCCCC1)c1cnc(C2CC2)c(OCC2CC2)n1 [Example 94, 5-Cyclopropyl-6-cyclopropylmethoxy-pyrazine-2-carboxylic acid (1-hydroxymethyl-cyclohexyl)-amide] | > 10000 nM | 12 nM
8 | COCCC(C)(C)NC(=O)c1cnc(C2CC2)c(OCC2CC2)n1 [Example 95, 5-Cyclopropyl-6-cyclopropylmethoxy-pyrazine-2-carboxylic acid (3-methoxy-1,1-dimethyl-propyl)-amide] | > 10000 nM | 22.4 nM
9 | CN(C)C(=O)C(CC1CCC1)NC(=O)c1cnc(N2CC(F)(F)C2)c(OCC2CC2)n1 (centres unmarked) [Example 97, 6-Cyclopropylmethoxy-5-(3,3-difluoro-azetidin-1-yl)-pyrazine-2-carboxylic acid (2-cyclobutyl-1-dimethylcarbamoyl-ethyl)-amide] | > 10000 nM | 20.4 nM
10 | CNC(=O)C(CC1CCC1)NC(=O)c1cnc(C2CC2)c(OCC2CC2)n1 (centres unmarked) [Example 98, 5-Cyclopropyl-6-cyclopropylmethoxy-pyrazine-2-carboxylic acid (2-cyclobutyl-1-methylcarbamoyl-ethyl)-amide] | > 10000 nM | 59.3 nM
11 | COCCC(C)(C)NC(=O)c1cnc(N2CC(F)(F)C2)c(OCC2CC2)n1 [Example 99, 6-Cyclopropylmethoxy-5-(3,3-difluoro-azetidin-1-yl)-pyrazine-2-carboxylic acid (3-methoxy-1,1-dimethyl-propyl)-amide] | > 10000 nM | 10.3 nM
12 | O=C(NC(CO)CC1CCC1)c1cnc(N2CC(F)(F)C2)c(OCC2CC2)n1 (centres unmarked) [Example 100, 6-Cyclopropylmethoxy-5-(3,3-difluoro-azetidin-1-yl)-pyrazine-2-carboxylic acid (1-cyclobutylmethyl-2-hydroxy-ethyl)-amide] | > 10000 nM | 7.3 nM
13 | NC(=O)C(CC1CCC1)NC(=O)c1cnc(N2CC(F)(F)C2)c(OCC2CC2)n1 (centres unmarked) [Example 101, 6-Cyclopropylmethoxy-5-(3,3-difluoro-azetidin-1-yl)-pyrazine-2-carboxylic acid (1-carbamoyl-2-cyclobutyl-ethyl)-amide] | > 10000 nM | 5.6 nM
14 | CC(C)(CCc1ccccc1)NC(=O)c1cnc(N2CC(F)(F)C2)c(OCC2CC2)n1 [Example 102, 6-Cyclopropylmethoxy-5-(3,3-difluoro-azetidin-1-yl)-pyrazine-2-carboxylic acid (1,1-dimethyl-3-phenyl-propyl)-amide] | > 10000 nM | 2.5 nM
15 | CN(C)C(=O)C(CC1CCC1)NC(=O)c1cnc(C2CC2)c(OCC2CC2)n1 (centres unmarked) [Example 103, 5-Cyclopropyl-6-cyclopropylmethoxy-pyrazine-2-carboxylic acid (2-cyclobutyl-1-dimethylcarbamoyl-ethyl)-amide] | > 10000 nM | 19.2 nM
16 | NC(=O)C(CC1CCC1)NC(=O)c1cnc(C2CC2)c(OCC2CC2)n1 (centres unmarked) [Example 104, 5-Cyclopropyl-6-cyclopropylmethoxy-pyrazine-2-carboxylic acid (1-carbamoyl-2-cyclobutyl-ethyl)-amide] | > 10000 nM | 42.9 nM
17 | O=C(NC(CO)CC1CCC1)c1cnc(C2CC2)c(OCC2CC2)n1 (centres unmarked) [Example 105, 5-Cyclopropyl-6-cyclopropylmethoxy-pyrazine-2-carboxylic acid (1-cyclobutylmethyl-2-hydroxy-ethyl)-amide] | > 10000 nM | 37 nM
18 | CC(C)(CC(N)=O)NC(=O)c1cnc(C2CC2)c(OCC2CC2)n1 [Example 106] | > 10000 nM | 43.2 nM
19 | CC(C)(CC(N)=O)NC(=O)c1cnc(N2CC(F)(F)C2)c(OCC2CC2)n1 [Example 107, 6-Cyclopropylmethoxy-5-(3,3-difluoro-azetidin-1-yl)-pyrazine-2-carboxylic acid (2-carbamoyl-1,1-dimethyl-ethyl)-amide] | 874 nM | 11.8 nM
